# Laboratory results as given in patent US20100041089A1, “IMPROVED METHOD FOR DETECTING CHEMICAL […]” (priority 2006, published 2010).
# Tested on: yeast genes (expressed mRNA)
# Assay: DNA chip measurement of expressed mRNA of yeast genes after culture with a toxic chemical substance
# Type: cell-based, Saccharomyces cerevisiae S288C
# Settings: for level of expressed mRNA in the presence of chemical substance / level in the absence of chemical substance: cultured two hours with the chemical substance; for The level of expressed mRNA in the presence of chemical substance/The level of expressed mRNA in the absence of chemical substance: cultured two hours with substance
# Method in brief: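 Each expression value is the mRNA level in chemical-treated yeast divided by that in untreated yeast, from Cy3/Cy5 fluorescence on a whole-genome chip. Log-phase S288C cells in YPD at 25° C had received a sublethal, growth-inhibiting dose for two hours. Intensity denotes control expression relative to the all-gene mean.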
structure (smiles),measurement,setting,value
"CCCCCCCCCCCCc1ccc(S(=O)(=O)[O-])cc1.[Na+] [(17), Sodium dodecylbenzosulfonate]",level of expressed mRNA in the presence of chemical substance / level in the absence of chemical substance,yeast gene YDR128W,0.9
same,level of expressed mRNA in the presence of chemical substance / level in the absence of chemical substance,yeast gene YDR133C,0.6
same,level of expressed mRNA in the presence of chemical substance / level in the absence of chemical substance,yeast gene YDR250C,0.9
same,level of expressed mRNA in the presence of chemical substance / level in the absence of chemical substance,yeast gene YDR278C,0.7
same,level of expressed mRNA in the presence of chemical substance / level in the absence of chemical substance,yeast gene YDR281C,1.5
same,The level of expressed mRNA in the presence of chemical substance/The level of expressed mRNA in the absence of chemical substance,yeast gene YDR330W,1.5
same,level of expressed mRNA in the presence of chemical substance / level in the absence of chemical substance,yeast gene YDR366C,1.2
same,The level of expressed mRNA in the presence of chemical substance/The level of expressed mRNA in the absence of chemical substance,yeast gene YDR411C,1.5
same,The level of expressed mRNA in the presence of chemical substance/The level of expressed mRNA in the absence of chemical substance,yeast gene YDR511W,1.3
same,The level of expressed mRNA in the presence of chemical substance/The level of expressed mRNA in the absence of chemical substance,yeast gene YDR545W,0.9
same,The level of expressed mRNA in the presence of chemical substance/The level of expressed mRNA in the absence of chemical substance,yeast gene YEL001C,0.7
same,The level of expressed mRNA in the presence of chemical substance/The level of expressed mRNA in the absence of chemical substance,yeast gene YER004W,1.4
same,The level of expressed mRNA in the presence of chemical substance/The level of expressed mRNA in the absence of chemical substance,yeast gene YER035W,2.2
same,The level of expressed mRNA in the presence of chemical substance/The level of expressed mRNA in the absence of chemical substance,yeast gene YER079W,1.0
same,The level of expressed mRNA in the presence of chemical substance/The level of expressed mRNA in the absence of chemical substance,yeast gene YER106W,0.8
same,The level of expressed mRNA in the presence of chemical substance/The level of expressed mRNA in the absence of chemical substance,yeast gene YER158C,1.6
same,The level of expressed mRNA in the presence of chemical substance/The level of expressed mRNA in the absence of chemical substance,yeast gene YER163C,1.2
same,The level of expressed mRNA in the presence of chemical substance/The level of expressed mRNA in the absence of chemical substance,yeast gene YER175C,0.9
same,The level of expressed mRNA in the presence of chemical substance/The level of expressed mRNA in the absence of chemical substance,yeast gene YFL006W,1.0
same,The level of expressed mRNA in the presence of chemical substance/The level of expressed mRNA in the absence of chemical substance,yeast gene YFL010C,1.9
same,The level of expressed mRNA in the presence of chemical substance/The level of expressed mRNA in the absence of chemical substance,yeast gene YFL024C,0.9
same,The level of expressed mRNA in the presence of chemical substance/The level of expressed mRNA in the absence of chemical substance,yeast gene YFL032W,1.7
same,level of expressed mRNA in the presence of chemical substance / level in the absence of chemical substance,yeast gene YFR026C,1.1
same,The level of expressed mRNA in the presence of chemical substance/The level of expressed mRNA in the absence of chemical substance,yeast gene YGL037C,1.3
same,The level of expressed mRNA in the presence of chemical substance/The level of expressed mRNA in the absence of chemical substance,yeast gene YGL047W,1.1
same,The level of expressed mRNA in the presence of chemical substance/The level of expressed mRNA in the absence of chemical substance,yeast gene YGL053W,2.2
same,level of expressed mRNA in the presence of chemical substance / level in the absence of chemical substance,yeast gene YGL088W,0.5
same,The level of expressed mRNA in the presence of chemical substance/The level of expressed mRNA in the absence of chemical substance,yeast gene YGL121C,2.7
same,The level of expressed mRNA in the presence of chemical substance/The level of expressed mRNA in the absence of chemical substance,yeast gene YGL199C,1.2
same,level of expressed mRNA in the presence of chemical substance / level in the absence of chemical substance,yeast gene YGR038W,1.1
same,The level of expressed mRNA in the presence of chemical substance/The level of expressed mRNA in the absence of chemical substance,yeast gene YGR101W,1.0
same,The level of expressed mRNA in the presence of chemical substance/The level of expressed mRNA in the absence of chemical substance,yeast gene YGR110W,0.9
same,The level of expressed mRNA in the presence of chemical substance/The level of expressed mRNA in the absence of chemical substance,yeast gene YGR130C,1.3
same,level of expressed mRNA in the presence of chemical substance / level in the absence of chemical substance,yeast gene YGR139W,1.0
same,The level of expressed mRNA in the presence of chemical substance/The level of expressed mRNA in the absence of chemical substance,yeast gene YGR154C,1.0
same,The level of expressed mRNA in the presence of chemical substance/The level of expressed mRNA in the absence of chemical substance,yeast gene YGR221C,1.3
same,level of expressed mRNA in the presence of chemical substance / level in the absence of chemical substance,yeast gene YGR243W,2.1
same,level of expressed mRNA in the presence of chemical substance / level in the absence of chemical substance,yeast gene YGR293C,0.8
same,level of expressed mRNA in the presence of chemical substance / level in the absence of chemical substance,yeast gene YHL006C,1.1
same,level of expressed mRNA in the presence of chemical substance / level in the absence of chemical substance,yeast gene YHR095W,0.8
same,level of expressed mRNA in the presence of chemical substance / level in the absence of chemical substance,yeast gene YHR105W,1.0
same,The level of expressed mRNA in the presence of chemical substance/The level of expressed mRNA in the absence of chemical substance,yeast gene YHR138C,5.0
same,level of expressed mRNA in the presence of chemical substance / level in the absence of chemical substance,yeast gene YHR181W,0.9
same,The level of expressed mRNA in the presence of chemical substance/The level of expressed mRNA in the absence of chemical substance,yeast gene YHR199C,1.1
same,The level of expressed mRNA in the presence of chemical substance/The level of expressed mRNA in the absence of chemical substance,yeast gene YIL023C,1.2
same,The level of expressed mRNA in the presence of chemical substance/The level of expressed mRNA in the absence of chemical substance,yeast gene YIL041W,0.8
same,The level of expressed mRNA in the presence of chemical substance/The level of expressed mRNA in the absence of chemical substance,yeast gene YIL087C,1.7
same,level of expressed mRNA in the presence of chemical substance / level in the absence of chemical substance,yeast gene YIL127C,0.7
same,level of expressed mRNA in the presence of chemical substance / level in the absence of chemical substance,yeast gene YJL017W,1.0
same,level of expressed mRNA in the presence of chemical substance / level in the absence of chemical substance,yeast gene YJL037W,1.3
same,The level of expressed mRNA in the presence of chemical substance/The level of expressed mRNA in the absence of chemical substance,yeast gene YJL057C,1.4
same,The level of expressed mRNA in the presence of chemical substance/The level of expressed mRNA in the absence of chemical substance,yeast gene YJL066C,1.4
same,The level of expressed mRNA in the presence of chemical substance/The level of expressed mRNA in the absence of chemical substance,yeast gene YJL082W,0.6
